This test has as its system PTEN-P2/GFP prostate cancer cells. The test is described as follows: Effect of 1,4-naphthoquinone analogs on PTEN-P2/GFP cell proliferation (WST-1 cell viability, 24 h). The conditions noted are these: Mus musculus, WST-1, medium with 10% FBS and DHT, read-out: PTEN-P2/GFP cell proliferation, percent of control. It counts as cell-based. On the procedure: Cells are grown in phenol red-free DMEM medium containing 10% FBS, 2 mM L-glutamine, 100 U/ml penicillin/100 μg/ml streptomycin, insulin-selenium-transferrin (5 μg/ml insulin), and DHT 10^−8M final. Androgen withdrawal is achieved by not adding DHT to the medium. Cells are maintained in a humidified incubator at 37° C. and 5% CO2. G418 (100 μg/ml) is added to maintain stable expression of H2B-GFP.
100 microliters of PTEN-P2/GFP prostate cancer cells were plated at a density of 8000 cells/well in 96-well plates (triplicates) in growing medium containing 10% Fetal Bovine Serum and DHT. The next day, increasing concentrations of a 1,4-naphthoquinone analog (diluted from 10 mM DMSO stock solutions) were added. DMSO used as solvent for all analogs, was kept constant through the 96-well plates. The control consisted of DMSO alone. The cells were subsequently incubated for 24 hours at 37° C. and 5% CO2 in normal cell growth conditions. Cell viability was assessed by adding 9 μL/well of WST-1 reagent (Clontech), which measured mitochondrial activity of live cells. […] The incubation time was 3 hours at 37° C. Optical density of the cell samples was measured at 460 nm, by using plate reader Spectra Max 250 (Molecular Devices). The drug was determined to be cytotoxic when OD values show an inverse correlation with analog concentrations. The results are shown in TABLES 3.1-3.4, FIGS. 2A-2E, and FIGS. 3A-3D.
(In general: Tetrazolium dyes change colour on reduction, which living cells bring about.)

SMILES strings stand for the structures.

With `O=C1C(Oc2ccccc2)=C(Oc2ccccc2)C(=O)c2ccccc21` [Analog F21, 2,3-diphenoxy-1,4-naphthoquinone], the activity at 2 µM turned out to be 102%, the activity at 3 µM stood at 92.9%, the activity at 4 µM was 92.9% and the activity at 5 µM was 92.9%. Moreover, the activity at 6 µM was 61.8%, the activity at 7 µM amounted to 54.4%, the activity at 10 µM stood at 26.1% and the activity at 15 µM is 16.2%. For the same molecule, the activity at 25 µM turned out to be 16.3%.

Turning to `CC(=O)NC1=C(Oc2ccc(NC(C)=O)cc2)C(=O)c2ccccc2C1=O` [Analog F40, N-(4-((3-acetamido-1,4-dioxo-1,4-dihydronaphthalen-2-yl)oxy)phenyl)acetamide], the activity at 2 µM worked out at 97%, the activity at 3 µM turned out to be 98.8%, the activity at 4 µM worked out at 89.2% and the activity at 5 µM turned out to be 85.2%. In addition, the activity at 6 µM was 73.2%, the activity at 7 µM is 67.3%, the activity at 10 µM is 56.2% and the activity at 15 µM came to 46.1%. Also, the activity at 25 µM was found to be 44.6%.

`O=C1C(Br)=C(Oc2ccccc2)C(=O)c2ccccc21` [Analog F18, 2-bromo-3-phenoxy-1,4-naphthoquinone]: the activity at 2 µM was determined as 96.6%, the activity at 3 µM stood at 92.5%, the activity at 4 µM is 85.5% and the activity at 5 µM turned out to be 69.8%. Besides, the activity at 6 µM amounted to 53.5%, the activity at 7 µM worked out at 45%, the activity at 10 µM was determined as 20.3% and the activity at 15 µM worked out at 11.1%. For the same molecule, the activity at 25 µM is 9.64%.

Consider `O=C1C=C(Oc2cc(F)cc(F)c2)C(=O)c2ccccc21` [Analog F17, 2-(3,5-difluorophenoxy)naphthalene-1,4-dione], for which the activity at 1.2 µM amounted to 97%, the activity at 2.5 µM is 91.8%, the activity at 5 µM came to 88.7% and the activity at 7.5 µM came to 78.2%. In addition, the activity at 10 µM stood at 71.5%, the activity at 15 µM was determined as 1.07% and the activity at 20 µM was found to be 2.53%.

For `CC1=CC(=O)c2c(OCCCCI)cccc2C1=O` [Analog F48, 5-(4-iodobutoxy)-2-methyl-1,4-naphthoquinone], the activity at 2 µM amounted to 102%, the activity at 3 µM stood at 102%, the activity at 4 µM turned out to be 102% and the activity at 5 µM stood at 109%. In addition, the activity at 6 µM stood at 112%, the activity at 7 µM was determined as 115%, the activity at 10 µM worked out at 103% and the activity at 25 µM turned out to be 11%. Moreover, the activity at 1 µM (1 μM) stood at 103%. For the same molecule, the activity at 50 µM (50 μM) is 10%.

With `O=C1C=C(Oc2ccc([N+](=O)[O-])cc2)C(=O)c2ccccc21` [Analog F12, 2-(4-nitrophenoxy)naphthalene-1,4-dione], the activity at 1.2 µM turned out to be 122%, the activity at 2.5 µM was determined as 118%, the activity at 5 µM is 118% and the activity at 7.5 µM stood at 117%. For the same molecule, the activity at 10 µM came to 115%, the activity at 15 µM amounted to 78.8% and the activity at 20 µM came to 8.27%.

As to `O=C1C=C(Oc2ccc3ccccc3c2)C(=O)c2ccccc21` [Analog F09, 2-(naphthalene-2-yloxy)-1,4-naphthoquinone], the activity at 1.2 µM turned out to be 117%, the activity at 2.5 µM amounted to 114%, the activity at 5 µM stood at 106% and the activity at 7.5 µM amounted to 70%. Besides, the activity at 10 µM was 28.7%, the activity at 15 µM was 1.97% and the activity at 20 µM is 3.09%.

As for `Cc1cc(OC2=CC(=O)c3ccccc3C2=O)ccc1Cl` [Analog F15, 2-(4-chloro-3-methylphenoxy)naphthalene-1,4-dione], the activity at 1.2 µM stood at 95.6%, the activity at 2.5 µM was 89%, the activity at 5 µM came to 97.1% and the activity at 7.5 µM came to 55.5%. Moreover, the activity at 10 µM stood at 4.3%, the activity at 15 µM worked out at 1.67% and the activity at 20 µM was found to be 2.4%.

Source of the values: US10577315B2, “Compositions and methods for treatment of prostate carcinoma” (Pellficure Pharmaceuticals, Inc., priority 2014, dated 2020).
